Source: patent publication US12139499B2, “Heteroaryl compounds for treating Huntington's disease” (PTC THERAPEUTICS, INC., priority 2018, dated 2024)

Tested on: Endogenous Huntingtin Protein
Experiment: Endogenous Huntingtin Protein Assay (ELISA-based MSD electrochemiluminescence)
Type: cell-based
Conditions: Table 1
Procedure, shortened: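 Sandwich MSD electrochemiluminescence immunoassay. Capture used MW1 (expanded polyglutamine) or MAB2166 antibody coated at 1 μg/mL overnight at 4 °C. Samples were bound overnight at 4 °C, then a rabbit monoclonal detection antibody and SULFO-TAG anti-rabbit, each at 0.25 μg/mL, were applied for 1 h at room temperature.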

Compound	IC50
Cn1cc2cc(-c3cc(F)c4nc(C5CCNCC5)sc4c3)cc(C#N)c2n1 [Compound 104, 5-[4-fluoro-2-(piperidin-4-yl)-1,3-benzothiazol-6-yl]-2-methyl-2H-indazole-7-carbonitrile]	≤ 0.1 µM
Cn1cc2cc(-c3cnc4nc(NC5CCNCC5)sc4c3)ccc2n1 [Compound 15, 6-(2-methyl-2H-indazol-5-yl)-N-(piperidin-4-yl)[1,3]thiazolo[4,5-b]pyridin-2-amine]	1 to 3 µM
Cc1cn2nc(-c3cnc4nc(N(C)C5CC(C)(C)NC(C)(C)C5)sc4n3)ccc2n1 [Compound 141, N-methyl-6-(2-methylimidazo[1,2-b]pyridazin-6-yl)-N-(2,2,6,6-tetramethylpiperidin-4-yl)[1,3]thiazolo[4,5-b]pyrazin-2-amine]	≤ 0.1 µM
CN[C@H]1C[C@H](N(C)c2nc3nnc(-c4ccc(-c5cn[nH]c5)cc4O)cc3s2)C1 [Compound 376, 2-(6-{methyl[(1r,3r)-3-(methylamino)cyclobutyl]amino}[1,3]thiazolo[4,5-c]pyridazin-3-yl)-5-(1H-pyrazol-4-yl)phenol]	0.1 to 0.5 µM
Cc1cn2cc(-c3cc4sc(N(C)C5CCNCC5)nc4cn3)cc(F)c2n1 [Compound 215, 6-(8-fluoro-2-methylimidazo[1,2-a]pyridin-6-yl)-N-methyl-N-(piperidin-4-yl)[1,3]thiazolo[4,5-c]pyridin-2-amine]	≤ 0.1 µM
Cc1csc2nc(-c3cc4sc(N(C)C5CC(C)(C)NC(C)(C)C5)nc4cn3)cn12 [Compound 305]	0.5 to 1 µM
Cc1cn2nc(-c3cc(F)c4nc(N(C)C5CC6CCC(C5)N6)sc4c3)cc(C)c2n1 (stereo not drawn) [Compound 192, N-[(3-exo)-8-azabicyclo[3.2.1]oct-3-yl]-6-(2,8-dimethylimidazo[1,2-b]pyridazin-6-yl)-4-fluoro-N-methyl-1,3-benzothiazol-2-amine]	≤ 0.1 µM
Cc1cn2cc(-c3cc4sc(N(C)C5CC6CCCC(C5)N6)nc4cn3)cc(C#N)c2n1 (stereo not drawn) [Compound 251, 6-{2-[9-azabicyclo[3.3.1]non-3-yl(methyl)amino][1,3]thiazolo[4,5-c]pyridin-6-yl}-2-methylimidazo[1,2-a]pyridine-8-carbonitrile]	≤ 0.1 µM
Cc1cn2cc(-c3cc4sc(N(C)[C@@H]5CC(C)(C)NC(C)(C)[C@@H]5F)nc4cn3)cc(C#N)c2n1 [Compound 325, 6-(2-{[(3R,4R)-3-fluoro-2,2,6,6-tetramethylpiperidin-4-yl](methyl)amino}[1,3]thiazolo[4,5-c]pyridin-6-yl)-2-methylimidazo[1,2-a]pyridine-8-carbonitrile]	≤ 0.1 µM
CN1CC[C@H](N(C)c2nc3nnc(-c4ccc(-c5cn[nH]c5)cc4O)cc3s2)C[C@H]1CO [Compound 372, 2-(6-{[(2S,4S)-2-(hydroxymethyl)-1-methylpiperidin-4-yl](methyl)amino}[1,3]thiazolo[4,5-c]pyridazin-3-yl)-5-(1H-pyrazol-4-yl)phenol]	≤ 0.1 µM
Cc1cn2cc(-c3cc4sc(N(C)C5CC6(C)CCC(C)(C5)N6)nc4cn3)ccc2n1 [Compound 300, N-[(1R,3s,5S)-1,5-dimethyl-8-azabicyclo[3.2.1]octan-3-yl]-N-methyl-6-(2-methylimidazo[1,2-a]pyridin-6-yl)[1,3]thiazolo[4,5-c]pyridin-2-amine]	≤ 0.1 µM
Cc1cn2cc(-c3ncc4nc(N(C)C5C6CCC5CNC6)sc4n3)cc(F)c2n1 (stereo not drawn) [Compound 227, N-[(8-anti)-3-azabicyclo[3.2.1]oct-8-yl]-5-(8-fluoro-2-methylimidazo[1,2-a]pyridin-6-yl)-N-methyl[1,3]thiazolo[5,4-d]pyrimidin-2-amine]	1 to 3 µM
Cn1cc2cc(-c3ccc4nc(C5CCNCC5)sc4c3)ccc2n1 [Compound 2, 6-(2-methyl-2H-indazol-5-yl)-2-(piperidin-4-yl)-1,3-benzothiazole]	0.1 to 0.5 µM
CN(c1nc2nnc(-c3ccc(-c4cn[nH]c4)cc3O)cc2s1)[C@H]1CNC[C@@H]1F [Compound 381, 2-(6-{[(3S,4S)-4-fluoropyrrolidin-3-yl](methyl)amino}[1,3]thiazolo[4,5-c]pyridazin-3-yl)-5-(1H-pyrazol-4-yl)phenol]	0.1 to 0.5 µM
Cc1cn2nc(-c3cc(F)c4nc(OC5CC(C)NC(C)C5)sc4c3)cc(C)c2n1 (stereo not drawn) [Compound 135, 6-{2-[(2,6-dimethylpiperidin-4-yl)oxy]-4-fluoro-1,3-benzothiazol-6-yl}-2,8-dimethylimidazo[1,2-b]pyridazine]	≤ 0.1 µM
Cc1cn2cc(-c3cc4sc(N(C)C5CC6CCCC(C5)N6C)nc4cn3)cc(F)c2n1 (stereo not drawn) [Compound 271, 6-(8-fluoro-2-methylimidazo[1,2-a]pyridin-6-yl)-N-methyl-N-(9-methyl-9-azabicyclo[3.3.1]non-3-yl)[1,3]thiazolo[4,5-c]pyridin-2-amine]	0.1 to 0.5 µM
CN1CCC(N(C)c2nc3nnc(-c4ccc(-c5cn[nH]c5)cc4O)cc3s2)CC1 [Compound 283, 2-{6-[methyl(1-methylpiperidin-4-yl)amino][1,3]thiazolo[4,5-c]pyridazin-3-yl}-5-(1H-pyrazol-4-yl)phenol]	0.5 to 1 µM

Compound	IC50
Cc1cn2nc(-c3ncc4nc(N(C)C5CC(C)(C)NC(C)(C)C5)sc4n3)cc(C)c2n1 [Compound 184, 5-(2,8-dimethylimidazo[1,2-b]pyridazin-6-yl)-N-methyl-N-(2,2,6,6-tetramethylpiperidin-4-yl)[1,3]thiazolo[5,4-d]pyrimidin-2-amine]	1 to 3 µM
Cc1cn2nc(-c3cc(F)c4nc(N5CC(C)NC(C)C5)sc4c3)cc(C)c2n1 (stereo not drawn) [Compound 132, 6-[2-(3,5-dimethylpiperazin-1-yl)-4-fluoro-1,3-benzothiazol-6-yl]-2,8-dimethylimidazo[1,2-b]pyridazine]	≤ 0.1 µM
Cn1cc2cc(-c3cc4sc(C5CCNCC5)nc4cn3)cc(C(F)(F)F)c2n1 [Compound 60, 6-[2-methyl-7-(trifluoromethyl)-2H-indazol-5-yl]-2-(piperidin-4-yl)[1,3]thiazolo[4,5-c]pyridine]	0.1 to 0.5 µM
Cn1cc2cc(-c3cc4sc(OC5CCNCC5)nc4cn3)cc(C#N)c2n1 [Compound 315, 2-methyl-5-{2-[(piperidin-4-yl)oxy][1,3]thiazolo[4,5-c]pyridin-6-yl}-2H-indazole-7-carbonitrile]	0.1 to 0.5 µM
CN(c1nc2cnc(-c3cc(F)c4nn(C)cc4c3)cc2s1)[C@@H]1C[C@H]2CC[C@@H](C1)N2C [Compound 241, 6-(7-fluoro-2-methyl-2H-indazol-5-yl)-N-methyl-N-[(3-exo)-8-methyl-8-azabicyclo[3.2.1]oct-3-yl][1,3]thiazolo[4,5-c]pyridin-2-amine]	0.1 to 0.5 µM
CCN1CCC(Oc2nc3c(F)cc(-c4cc(C)c5nc(C)cn5n4)cc3s2)CC1 [Compound 321, 6-{2-[(1-ethylpiperidin-4-yl)oxy]-4-fluoro-1,3-benzothiazol-6-yl}-2,8-dimethylimidazo[1,2-b]pyridazine]	≤ 0.1 µM
CN(c1nc2cnc(-c3cc(F)c4nn(C)cc4c3)cc2s1)C1CC2CCCC(C1)N2 (stereo not drawn) [Compound 253, N-(9-azabicyclo[3.3.1]non-3-yl)-6-(7-fluoro-2-methyl-2H-indazol-5-yl)-N-methyl[1,3]thiazolo[4,5-c]pyridin-2-amine]	≤ 0.1 µM
Cc1nc2ccc(-c3ccc4nc(N(C)C5CC(C)(C)NC(C)(C)C5)sc4c3)nn2n1 [Compound 48, N-methyl-6-(2-methyl[1,2,4]triazolo[1,5-b]pyridazin-6-yl)-N-(2,2,6,6-tetramethylpiperidin-4-yl)-1,3-benzothiazol-2-amine]	0.1 to 0.5 µM
C[C@@H]1C[C@@H](N(C)c2nc3nnc(-c4ccc(-c5cn[nH]c5)cc4O)cc3s2)CCN1C [Compound 397, 2-(6-{[(2R,4S)-1,2-dimethylpiperidin-4-yl](methyl)amino}[1,3]thiazolo[4,5-c]pyridazin-3-yl)-5-(1H-pyrazol-4-yl)phenol]	≤ 0.1 µM
Cc1cn2nc(-c3cc(F)c4nc(N(C)C5CC6CCC(C5)N6)sc4c3)cc(C#N)c2n1 (stereo not drawn) [Compound 235, 6-{2-[(3-exo)-8-azabicyclo[3.2.1]oct-3-yl(methyl)amino]-4-fluoro-1,3-benzothiazol-6-yl}-2-methylimidazo[1,2-b]pyridazine-8-carbonitrile]	≤ 0.1 µM
Cc1cn2cc(-c3cc4sc(NC5CC6CCC(C5)N6)nc4cn3)cc(F)c2n1 (stereo not drawn) [Compound 212, N-[(3-exo)-8-azabicyclo[3.2.1]oct-3-yl]-6-(8-fluoro-2-methylimidazo[1,2-a]pyridin-6-yl)[1,3]thiazolo[4,5-c]pyridin-2-amine]	≤ 0.1 µM
Cc1cn2cc(-c3cc4sc(N(C)C5CCN(C)C(C)C5)nc4cn3)cc(F)c2n1 (stereo not drawn) [Compound 380, N-(1,2-dimethylpiperidin-4-yl)-6-(8-fluoro-2-methylimidazo[1,2-a]pyridin-6-yl)-N-methyl[1,3]thiazolo[4,5-c]pyridin-2-amine]	0.1 to 0.5 µM
CN1CCCC2(CCN2c2nc3nnc(-c4ccc(-c5cn[nH]c5)cc4O)cc3s2)C1 (stereo not drawn) [Compound 370, 2-[6-(6-methyl-1,6-diazaspiro[3.5]nonan-1-yl)[1,3]thiazolo[4,5-c]pyridazin-3-yl]-5-(1H-pyrazol-4-yl)phenol]	≤ 0.1 µM
Cc1cn2cc(-c3cc(F)c4nc(OC5CCNCC5)sc4c3)cc(C#N)c2n1 [Compound 317, 6-{4-fluoro-2-[(piperidin-4-yl)oxy]-1,3-benzothiazol-6-yl}-2-methylimidazo[1,2-a]pyridine-8-carbonitrile]	≤ 0.1 µM
Cc1cc(-c2cnc3nc(N(C)C4CCNCC4)sc3c2)cc2cn(C)nc12 [Compound 13, 6-(2,7-dimethyl-2H-indazol-5-yl)-N-methyl-N-(piperidin-4-yl)[1,3]thiazolo[4,5-b]pyridin-2-amine]	0.5 to 1 µM
Cc1cn2nc(-c3cc(F)c4nc(OC5CCN(C)CC5)sc4c3)cc(C)c2n1 [Compound 320, 6-{4-fluoro-2-[(1-methylpiperidin-4-yl)oxy]-1,3-benzothiazol-6-yl}-2,8-dimethylimidazo[1,2-b]pyridazine]	≤ 0.1 µM
